Assay results as given in patent US8314150B2, “Kinase protein binding inhibitors” (priority 2008, dated 2012).

Tested on: Panc-1 and Miapaca-2 pancreatic cancer cells
Assay: MTT cell viability assay, pancreatic cancer cells
Assay type: cell-based, human
Conditions: 72 hours
Protocol: The 3-(4,5-dimethylthiazol-2-yl)-5-(3-carboxymethoxyphenyl)-2-(4-sulfophenyl)-2H-tetrazolium compound from Promega Viability kit (Madison, Ill.) was added, and the cells were incubated at 37° C. for 1-2 hours. The optical density on 96-plate was analyzed with a microplate reader at 490 nm to determine cell viability. In addition, cells were stained with trypan blue after 24 hours of treatment with Y15 and the percent of cells that stained positive were determined with a hemacytometer. Cell adhesion assay—The poly-L-Lysine or Collagen (5 μg/ml) coated 96-well plates were blocked with the blocking buffer (medium with 0.5% BSA) for 1 hour at 37 C. […] Then 2% SDS was added to the dried plated and OD at 590 nm was measured for detecting cell adhesion. […] Protein concentrations were determined using a Bio-Rad Kit. The boiled samples were loaded on Ready SDS-10% PAGE gels (Bio Rad, Inc) and used for Western blot analysis with the protein-specific antibody. […] Detachment Assay—Cells were plated with and without inhibitors for 24 hours, and detached and attached cells were counted in a hemocytometer. We calculated the percent of detachment by dividing the number of detached cells by the total number of cells. The percent of detached cells was calculated in three independent experiments. […] For each experiment 300 cells per treatment were counted. […]

Cl.Cl.Cl.Cl.Nc1cc(N)c(N)cc1N [Y15, 1,2,4,5-benzenetetraamine tetrahydrochloride]
dose from which cell viability was inhibited: 1 µM
